Our source for the GI50 and TGI values is PubChem BioAssay (NCI).

Several values for one entry are separate records, joined by “and”; a condition that tells them apart may be missing. Identical values can stand only once.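 Dose response: 5 concentrations. Exposure: 48 h. Format: 96-well plates. Endpoint: linear interpolation; highest concentration if not reached. GI50: concentration for 50% inhibition of growth. TGI marks complete inhibition of growth.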 Some results are limits rather than exact numbers.

Test systems include CAKI-1 renal; IGROV1 ovarian; LOX IMVI melanoma; OVCAR-8 ovarian; PC-3 prostate; SK-MEL-5 melanoma; SK-OV-3 ovarian; SW-620 colon; UACC-257 melanoma; HCT-116 colon.
What all share (experiment): DTP human tumour cell line panel, 48 h

For `C(=Nc1nc(SCc2ccccc2)nc2[nH]ncc12)c1cccs1`, the GI50 (as a rule, the concentration at which growth is held to half of that of the control) with CAKI-1 renal is 29.8 µM; in the assay with IGROV1 ovarian, more than 100 µM; in the assay with LOX IMVI melanoma, 48.6 µM; in the assay with OVCAR-8 ovarian, 39.6 µM; in the assay on PC-3 prostate, 32.6 µM; in the assay on SK-MEL-5 melanoma it was 2.77 µM. For the same compound, the GI50 was more than 100 µM with SK-OV-3 ovarian, 47.2 µM in the assay with SW-620 colon and 53.7 µM with UACC-257 melanoma. The total growth inhibition concentration (TGI) (commonly the concentration giving total growth inhibition) was more than 100 µM in the assay with CAKI-1 renal; more than 100 µM in the assay with IGROV1 ovarian; more than 100 µM with LOX IMVI melanoma; more than 100 µM with OVCAR-8 ovarian; more than 100 µM with PC-3 prostate; 19.8 µM in the assay on SK-MEL-5 melanoma. Moreover, the TGI in the assay on SK-OV-3 ovarian, in the assay with SW-620 colon and in the assay with UACC-257 melanoma was more than 100 µM each time.
Turning to `CC(=O)O[C@H]1CC2C(C3CC[C@H](C(C)CCC(=O)O)[C@]31C)[C@H](OC(C)=O)C[C@@H]1CC3(CC[C@]21C)OOC1(CCC(C)CC1)OO3` (stereo partly specified), the GI50 in the assay on CAKI-1 renal was 6.75 µM and 2.23 µM; in the assay with SK-MEL-5 melanoma, 7.2 µM and 3.39 µM; in the assay with SK-OV-3 ovarian, 10.6 µM and 3.14 µM; in the assay with SW-620 colon it was 7.42 µM and 3.55 µM. Besides, the TGI in the assay on CAKI-1 renal was 19.1 µM and 6.49 µM; in the assay with HCT-116 colon it was 13.9 µM and 5.9 µM; in the assay on IGROV1 ovarian, 4.64 µM and 2.76 µM; with OVCAR-8 ovarian it was 14.1 µM and 5.66 µM; in the assay on PC-3 prostate, 17.2 µM and 14.2 µM; in the assay on SK-MEL-5 melanoma it was 20.1 µM and 12.5 µM. In addition, the concentration for total growth inhibition (TGI) is 22.4 µM and 10.7 µM with SK-OV-3 ovarian; 22.2 µM and 16 µM with SW-620 colon; 24.8 µM and 24.3 µM with UACC-257 melanoma.
With `COc1cc(OC)c(OC)cc1/C=C/c1nc2ccccc2s1`, the TGI in the assay on HCT-116 colon, in the assay on IGROV1 ovarian, with LOX IMVI melanoma, with OVCAR-8 ovarian, in the assay with PC-3 prostate and with SK-MEL-5 melanoma was more than 100 µM each time. In addition, the TGI in the assay on SK-OV-3 ovarian, in the assay with SW-620 colon and in the assay on UACC-257 melanoma was more than 100 µM in each case.
Consider `O=C(COc1ccc(/C=C2\Oc3ccccc3C2=O)cc1)Nc1nc2ccccc2s1`, for which the GI50 in the assay on CAKI-1 renal was 1.79 µM; in the assay on HCT-116 colon, 19.3 µM; in the assay on OVCAR-8 ovarian, 0.321 µM; with PC-3 prostate, 2.27 µM; in the assay with SK-MEL-5 melanoma, 29.7 µM; in the assay with SK-OV-3 ovarian, 61.7 µM. In addition, the results for the GI50 in the assay with SW-620 colon and with UACC-257 melanoma were 24.2 µM and 8.24 µM, respectively. In addition, the total growth inhibition concentration (TGI) was more than 100 µM in the assay with HCT-116 colon; more than 100 µM in the assay on OVCAR-8 ovarian; more than 70.6 µM with PC-3 prostate; more than 100 µM in the assay with SK-MEL-5 melanoma; more than 100 µM with SK-OV-3 ovarian; more than 100 µM with SW-620 colon. The compound also came in with a TGI with UACC-257 melanoma of 45.2 µM.
Turning to `COc1cc(-c2nccc3[nH]c(-c4ccc5cc[nH]c5c4)nc23)cc(OC)c1OC`, the GI50 is less than 0.01 µM in the assay on CAKI-1 renal; less than 0.01 µM with HCT-116 colon; 0.015 µM in the assay with IGROV1 ovarian; less than 0.01 µM in the assay with LOX IMVI melanoma; less than 0.01 µM in the assay with OVCAR-8 ovarian; less than 0.01 µM in the assay with PC-3 prostate. Further, the GI50 with SK-MEL-5 melanoma, in the assay on SK-OV-3 ovarian and in the assay on SW-620 colon was less than 0.01 µM each time. For the same compound, the TGI was determined as 11.2 µM in the assay with CAKI-1 renal; 1.13 µM with HCT-116 colon; 3.77 µM in the assay with IGROV1 ovarian; 1.5 µM with LOX IMVI melanoma; 11.1 µM in the assay with OVCAR-8 ovarian; 4.74 µM with PC-3 prostate. Moreover, the TGI in the assay on SK-MEL-5 melanoma came to 0.563 µM; with SK-OV-3 ovarian it was 5.66 µM; in the assay with SW-620 colon, 1.6 µM.
Regarding `Cc1cc(Cl)nc(N(CCNc2ccnc3cc(Cl)ccc23)Cc2ccco2)n1`, the GI50 in the assay on HCT-116 colon was 1.58 µM; in the assay with IGROV1 ovarian, 1.75 µM; in the assay on LOX IMVI melanoma, 1.72 µM; in the assay with OVCAR-8 ovarian, 1.93 µM; with PC-3 prostate it was 2.03 µM; in the assay with SK-MEL-5 melanoma, 1.67 µM. Moreover, the results for the GI50 in the assay on SK-OV-3 ovarian, with SW-620 colon and in the assay on UACC-257 melanoma were 2.56 µM, 1.85 µM and 1.97 µM, respectively. For the same compound, the concentration for total growth inhibition (TGI) in the assay on HCT-116 colon is 3.2 µM; in the assay with IGROV1 ovarian, 3.66 µM; with LOX IMVI melanoma, 3.2 µM; in the assay on OVCAR-8 ovarian, 4.29 µM; with PC-3 prostate, 5.49 µM; in the assay on SK-MEL-5 melanoma, 3.06 µM. Besides, the TGI in the assay with SK-OV-3 ovarian came to 7.44 µM; in the assay with SW-620 colon, 4.45 µM; with UACC-257 melanoma, 4.16 µM.
Consider `CCc1ccc(Nc2cc(C)c3ccc(O)cc3n2)cc1`, for which the GI50 is 4.92 µM in the assay on CAKI-1 renal; 4.57 µM in the assay with HCT-116 colon; 6.14 µM with IGROV1 ovarian; 5.03 µM in the assay with LOX IMVI melanoma; 10.8 µM in the assay with OVCAR-8 ovarian; 4.79 µM in the assay on PC-3 prostate. The GI50 in the assay on SK-MEL-5 melanoma was 4.08 µM; with SK-OV-3 ovarian it was 12.6 µM; in the assay with SW-620 colon, 5.48 µM. The TGI with CAKI-1 renal was 19 µM; with HCT-116 colon it was 17.4 µM; in the assay on IGROV1 ovarian, 20.8 µM; with LOX IMVI melanoma it was 18.5 µM; in the assay on OVCAR-8 ovarian, 35.3 µM; in the assay with PC-3 prostate it was 18.5 µM. For the same compound, the values for the TGI in the assay with SK-MEL-5 melanoma, in the assay on SK-OV-3 ovarian and in the assay with SW-620 colon were 14.3 µM, 25.2 µM and 20.2 µM, respectively.
Take `c1ccc(C(c2ccccc2)c2ccccn2)cc1`: the TGI in the assay on CAKI-1 renal, in the assay with HCT-116 colon, in the assay on IGROV1 ovarian, in the assay on LOX IMVI melanoma, in the assay on OVCAR-8 ovarian and with SK-MEL-5 melanoma was more than 100 µM each time. The total growth inhibition concentration (TGI) in the assay with SK-OV-3 ovarian, with SW-620 colon and in the assay with UACC-257 melanoma was more than 100 µM throughout.
As for `O=C(CCCC(=O)Nc1ccc(Cl)cc1Cl)CC(=O)c1ccc2ccccc2c1`, the TGI in the assay on CAKI-1 renal, with HCT-116 colon, with IGROV1 ovarian, with LOX IMVI melanoma, in the assay on OVCAR-8 ovarian and in the assay with SK-MEL-5 melanoma was more than 100 µM in each case. Besides, the TGI in the assay on SK-OV-3 ovarian, in the assay on SW-620 colon and in the assay with UACC-257 melanoma was more than 100 µM each time.
For `Nc1nc(=S)c2c(ncn2CCO)[nH]1`, the TGI in the assay with CAKI-1 renal, in the assay with HCT-116 colon, with IGROV1 ovarian, with LOX IMVI melanoma, in the assay on OVCAR-8 ovarian and with SK-MEL-5 melanoma was more than 100 µM each time. Moreover, the TGI with SK-OV-3 ovarian, with SW-620 colon and in the assay with UACC-257 melanoma was more than 100 µM throughout.
